# Results taken from the NIST ThermoML archive (doi:10.1021/je049908l).
# ± gives the expanded uncertainty stated by the source.
# Experiments:
# [1] = Molar enthalpy of transition or fusion; settings: Crystal; DSC
# [2] = Crystal; DTA
compound,measurement,setting,value
NC(C(=O)O)c1ccc(O)cc1.O=S(=O)(O)O (racemic) [DL-p-hydroxyphenylglycine sulfate],Molar enthalpy of transition or fusion,[1],10.7 ± 0.693 kcal/mol
same,Normal melting temperature,[2],71.80 ± 2.1 °C
